Drawing on ChEMBL document CHEMBL1146225, “[1,2,3]Triazolo[4,5-h]quinolones. A new class of potent antitubercular agents against multidrug resistant Mycobacterium tuberculosis strains” (Bioorg Med Chem Lett, 2007), this text covers MIC90, CFU and CC50 for 1 compound.

Series [1] concerns Mycobacterium tuberculosis. Nature of the series: Antitubercular activity against Mycobacterium tuberculosis SS7. In kind it is functional.
Series [2] concerns Mycobacterium tuberculosis. Nature of the series: Effect on mycobacterial growth of Mycobacterium tuberculosis H37Rv infected in human J774A1 cells at 0.5 ug/mL after 7 days. In kind it is functional, J774.A1.
Series [3] is described as follows: Cytotoxicity against human J774A1. In kind it is cell-based, J774.A1. The conditions noted are these: J774A1 cells.
For series [4], the system named is Mycobacterium tuberculosis. The series is described as follows: Antitubercular activity against Mycobacterium tuberculosis SS2. The class given is functional.
For series [5], the system named is Mycobacterium tuberculosis. Nature of the series: Effect on mycobacterial growth of Mycobacterium tuberculosis H37Rv infected in human J774A1 cells at 0.25 ug/mL after 7 days. In kind it is functional, J774.A1.
The nature of series [6]: Cytotoxicity against human Hep2 cells. In kind it is cell-based, HEp-2.
Series [7] has as its system Mycobacterium tuberculosis. The series is described as follows: Antitubercular activity against Mycobacterium tuberculosis SS1. The class given is functional.
Series [8] concerns Mycobacterium tuberculosis. Nature of the series: Antitubercular activity against Mycobacterium tuberculosis SS6. The class given is functional.
Series [9] has as its system Mycobacterium tuberculosis. Nature of the series: Antitubercular activity against Mycobacterium tuberculosis H37Rv. In kind it is functional.
Series [10] concerns Mycobacterium tuberculosis. The series is described as follows: Antitubercular activity against Mycobacterium tuberculosis SS3. In kind it is functional.
In series [11] the test system is Mycobacterium tuberculosis. The series is described as follows: Antitubercular activity against Mycobacterium tuberculosis SS11. In kind it is functional.
Series [12] concerns Mycobacterium tuberculosis. Nature of the series: Antitubercular activity against Mycobacterium tuberculosis SS4. The class given is functional.
The test system of series [13] is Mycobacterium tuberculosis. The series is described as follows: Antitubercular activity against Mycobacterium tuberculosis SS5. The class given is functional.
In series [14] the test system is Mycobacterium tuberculosis. Nature of the series: Antitubercular activity against Mycobacterium tuberculosis SS9. In kind it is functional.
The subject of series [15] is Mycobacterium tuberculosis. The series is described as follows: Antitubercular activity against Mycobacterium tuberculosis SS8. In kind it is functional.
Series [16] has as its system Mycobacterium tuberculosis. The series is described as follows: Antitubercular activity against Mycobacterium tuberculosis SS10. The class given is functional.

Converted amounts (≈) assume the structure as drawn.

By MIC90 is commonly meant an inhibitory concentration at the 90% level, which refers to growth in some studies and to a panel of isolates in others. A high value points to lower susceptibility. What is called CC50 is the concentration at which the toxic effect on the cells reaches its halfway point. Low readings indicate greater toxicity to the cells, high ones lower toxicity to the cells.

As to `CCCCn1cc(C(=O)OCC)c(=O)c2ccc3c(nnn3C)c21`, the MIC90 in series [1], in [4], in series [7], in series [8], in series [9] and in series [10] was 0.5 µg/mL (≈ 1.52 µM) throughout. Further, the MIC90 in series [11], in series [12], in series [13], in series [14], in series [15] and in [16] was 0.5 µg/mL (≈ 1.52 µM) each time. The values for the CFU in series [2] and in [5] were 5000 µL⁻¹ and 8000 µL⁻¹, respectively. For the same compound, the cytotoxic concentration (CC50) in [3] and in series [6] was greater than 50 µg/mL throughout.
